These results are taken from patent US20260207602A1, “EGFR INHIBITORS” (Blueprint Medicines Corporation, priority 2022, published 2026).

Experiment [1] deals with T1, EGFR (d746-750) (Homo sapiens, UniProt P00533, DEL746-750).
T1 construct: purchased SignalChem E10-122JG
Nature of the experiment: Biochemical EGFR inhibition assay (Caliper mobility shift), EGFR (d746-750). Particulars: biochemical Caliper mobility shift assay, EGFR Exon 19-del enzyme; read-out: Enz EGFR Exon 19-del IC50. In outline:
(§1)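 Peptide phosphorylation by the mutant enzyme is followed at 25 °C with either 1.0 mM ATP or ATP at Km, in HEPES pH 7.5 containing 0.015% Brij-35 and 1.0% DMSO. After 10–20% substrate turnover, 35 mM EDTA ends the reaction and mobility shift quantifies product.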

Experiment [2] concerns the target intracellular phosphorylation of EGFR (Tyr1068) in PC-9 cells (Homo sapiens, UniProt P00533, DEL746-750). The experiment in a line: PC-9 pEGFR AlphaLISA assay. It is filed as cell-based. The conditions noted are these: 4 hours incubation, read-out: Phos EGFR PC9 IC50. In outline: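 PC-9 cells (EGFR del746-750) in phenol-free DMEM/10% FBS, adhered overnight, then exposed to 10-point 4-fold compound dilutions for 4 h at 37 °C. Lysates assayed for pEGFR Tyr1068 by AlphaLISA SureFire Ultra; IC50 from percent pEGFR inhibition vs log concentration.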

In experiment [3] the target is T2, EGFR L858R (Homo sapiens, UniProt P00533, L858R).
T2 construct: purchased SignalChem E10-122BG
Nature of the experiment: Biochemical EGFR inhibition assay (Caliper mobility shift), EGFR L858R. Particulars: biochemical Caliper mobility shift assay, EGFR L858R enzyme; read-out: Enz EGFR L858R IC50. In outline:
as §1

T1 sequence (P00533 with tags, fused parts or gaps DEL746-750 limits assumed): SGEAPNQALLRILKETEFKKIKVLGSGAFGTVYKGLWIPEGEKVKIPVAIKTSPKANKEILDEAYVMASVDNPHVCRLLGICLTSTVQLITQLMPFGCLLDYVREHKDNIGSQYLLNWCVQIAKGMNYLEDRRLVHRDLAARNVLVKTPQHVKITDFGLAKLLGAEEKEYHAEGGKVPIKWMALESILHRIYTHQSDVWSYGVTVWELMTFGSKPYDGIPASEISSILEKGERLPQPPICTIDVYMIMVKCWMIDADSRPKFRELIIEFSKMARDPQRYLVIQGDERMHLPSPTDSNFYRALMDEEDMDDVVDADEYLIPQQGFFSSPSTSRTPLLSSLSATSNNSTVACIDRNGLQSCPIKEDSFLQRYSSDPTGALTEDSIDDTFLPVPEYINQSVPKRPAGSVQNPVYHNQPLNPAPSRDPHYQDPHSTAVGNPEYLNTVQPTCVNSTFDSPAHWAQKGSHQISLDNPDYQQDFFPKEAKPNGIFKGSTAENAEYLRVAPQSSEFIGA
T2 sequence (P00533 25-1210 L858R): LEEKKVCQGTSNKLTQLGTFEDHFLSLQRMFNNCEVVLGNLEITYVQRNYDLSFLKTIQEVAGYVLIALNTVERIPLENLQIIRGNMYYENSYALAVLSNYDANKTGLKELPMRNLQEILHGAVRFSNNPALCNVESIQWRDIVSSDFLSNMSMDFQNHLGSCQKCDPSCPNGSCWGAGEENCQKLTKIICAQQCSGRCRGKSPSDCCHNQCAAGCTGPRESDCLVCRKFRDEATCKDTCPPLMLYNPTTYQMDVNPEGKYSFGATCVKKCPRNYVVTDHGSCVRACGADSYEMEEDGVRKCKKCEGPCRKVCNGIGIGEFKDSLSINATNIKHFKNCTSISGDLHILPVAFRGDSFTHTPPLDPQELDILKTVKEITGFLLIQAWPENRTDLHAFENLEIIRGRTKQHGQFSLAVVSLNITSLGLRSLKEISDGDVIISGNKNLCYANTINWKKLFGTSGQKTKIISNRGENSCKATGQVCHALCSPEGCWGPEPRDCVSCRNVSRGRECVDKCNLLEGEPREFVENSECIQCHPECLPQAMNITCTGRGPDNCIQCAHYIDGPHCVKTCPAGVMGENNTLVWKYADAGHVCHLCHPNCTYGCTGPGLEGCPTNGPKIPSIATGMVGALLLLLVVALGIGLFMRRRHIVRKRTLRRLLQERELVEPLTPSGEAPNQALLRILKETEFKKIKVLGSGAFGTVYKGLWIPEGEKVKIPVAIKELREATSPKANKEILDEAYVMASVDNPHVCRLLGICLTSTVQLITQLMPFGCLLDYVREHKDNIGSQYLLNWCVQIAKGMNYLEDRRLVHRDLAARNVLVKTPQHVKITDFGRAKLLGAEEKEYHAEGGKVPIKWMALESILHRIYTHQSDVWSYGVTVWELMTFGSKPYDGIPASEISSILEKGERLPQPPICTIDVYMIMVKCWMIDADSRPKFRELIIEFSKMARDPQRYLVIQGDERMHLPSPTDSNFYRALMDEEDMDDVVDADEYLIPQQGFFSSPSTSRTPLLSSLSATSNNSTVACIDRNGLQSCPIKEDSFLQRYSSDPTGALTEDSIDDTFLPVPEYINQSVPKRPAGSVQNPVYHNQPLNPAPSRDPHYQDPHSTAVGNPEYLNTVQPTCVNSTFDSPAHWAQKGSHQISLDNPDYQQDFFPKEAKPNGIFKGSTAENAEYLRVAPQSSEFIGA
Sequence of intracellular phosphorylation of EGFR (Tyr1068) in PC-9 cells (P00533 with tags, fused parts or gaps DEL746-750): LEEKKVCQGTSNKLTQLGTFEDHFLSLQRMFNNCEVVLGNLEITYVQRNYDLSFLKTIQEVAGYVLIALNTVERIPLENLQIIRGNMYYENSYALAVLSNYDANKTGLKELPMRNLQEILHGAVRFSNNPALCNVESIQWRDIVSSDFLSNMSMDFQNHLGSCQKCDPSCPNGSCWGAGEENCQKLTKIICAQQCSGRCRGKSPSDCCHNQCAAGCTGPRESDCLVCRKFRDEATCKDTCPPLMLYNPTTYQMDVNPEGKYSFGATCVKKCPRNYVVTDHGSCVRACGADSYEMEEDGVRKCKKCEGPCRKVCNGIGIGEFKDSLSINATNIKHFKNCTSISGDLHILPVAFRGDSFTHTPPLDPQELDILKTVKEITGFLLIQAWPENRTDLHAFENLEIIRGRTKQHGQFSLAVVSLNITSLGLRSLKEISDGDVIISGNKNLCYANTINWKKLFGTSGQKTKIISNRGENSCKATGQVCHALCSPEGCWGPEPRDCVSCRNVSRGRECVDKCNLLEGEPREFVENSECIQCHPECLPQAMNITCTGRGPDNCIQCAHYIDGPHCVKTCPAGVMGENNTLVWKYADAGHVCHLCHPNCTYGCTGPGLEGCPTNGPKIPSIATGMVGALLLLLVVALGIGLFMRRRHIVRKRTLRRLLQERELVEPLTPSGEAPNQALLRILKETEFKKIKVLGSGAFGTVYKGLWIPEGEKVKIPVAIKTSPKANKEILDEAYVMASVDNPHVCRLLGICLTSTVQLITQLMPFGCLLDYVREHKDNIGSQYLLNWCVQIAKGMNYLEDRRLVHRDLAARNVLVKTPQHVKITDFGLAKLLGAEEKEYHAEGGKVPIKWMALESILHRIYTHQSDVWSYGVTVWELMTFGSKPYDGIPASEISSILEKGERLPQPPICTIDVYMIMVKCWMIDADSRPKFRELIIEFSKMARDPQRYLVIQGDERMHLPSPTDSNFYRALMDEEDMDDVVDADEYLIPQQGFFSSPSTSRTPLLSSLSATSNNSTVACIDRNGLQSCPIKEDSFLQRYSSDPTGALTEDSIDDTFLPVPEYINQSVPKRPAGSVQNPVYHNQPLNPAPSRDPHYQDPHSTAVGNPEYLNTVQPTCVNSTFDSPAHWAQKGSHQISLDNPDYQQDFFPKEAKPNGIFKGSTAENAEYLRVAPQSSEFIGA

`Cn1cc(-c2cc(OC3CCN(C4COC4)CC3)c3c(Nc4ccc5ncsc5c4F)ncnc3c2)cn1` [Example 315, 7-fluoro-N-(7-(1-methyl-1H-pyrazol-4-yl)-5-((1-(oxetan-3-yl)piperidin-4-yl)oxy)quinazolin-4-yl)benzo[d]thiazol-6-amine]: the IC50 in experiment [1], in experiment [2] and in experiment [3] was not above 10 nM throughout.

In the case of `COCCN1CCC(Oc2cc(-c3cnn(C)c3)cc3ncnc(Nc4ccc5ncsc5c4F)c23)CC1` [Example 316, 7-fluoro-N-(5-((1-(2-methoxyethyl)piperidin-4-yl)oxy)-7-(1-methyl-1H-pyrazol-4-yl)quinazolin-4-yl)benzo[d]thiazol-6-amine], the IC50 is not above 10 nM in experiment [1], 10.1 to 50 nM in experiment [2] and 10.1 to 50 nM in experiment [3].

As to `Cn1cc(-c2cc(O[C@H]3CCCN(C4COC4)C3)c3c(Nc4ccc5ncsc5c4)ncnc3c2)cn1` [Example 317, (S)-N-(7-(1-methyl-1H-pyrazol-4-yl)-5-((1-(oxetan-3-yl)piperidin-3-yl)oxy)quinazolin-4-yl)benzo[d]thiazol-6-amine], the IC50 in experiment [1], in experiment [2] and in experiment [3] was not above 10 nM each time.

On to `Cn1cc(-c2cc(OC3CCN(C4COC4)CC3)c3c(Nc4ccc5ncsc5c4)ncnc3c2)cn1` [Example 318, N-(7-(1-methyl-1H-pyrazol-4-yl)-5-((1-(oxetan-3-yl)piperidin-4-yl)oxy)quinazolin-4-yl)benzo[d]thiazol-6-amine], for which the IC50 in experiment [1], in experiment [2] and in experiment [3] was not above 10 nM throughout.

Take `COc1cn(C)nc1-c1cc(OC2CCN(C)CC2)c2c(Nc3ccc4ncsc4c3F)ncnc2c1` [Example 319, 7-fluoro-N-(7-(4-methoxy-1-methyl-1H-pyrazol-3-yl)-5-((1-methylpiperidin-4-yl)oxy)quinazolin-4-yl)benzo[d]thiazol-6-amine]: the IC50 in experiment [1] is not above 10 nM; in experiment [2], not above 10 nM; in experiment [3], 10.1 to 50 nM.

On to `COc1nn(C)cc1-c1cc(OC2CCN(C)CC2)c2c(Nc3ccc4ncsc4c3F)ncnc2c1` [Example 320, 7-fluoro-N-(7-(3-methoxy-1-methyl-1H-pyrazol-4-yl)-5-((1-methylpiperidin-4-yl)oxy)quinazolin-4-yl)benzo[d]thiazol-6-amine], for which the IC50 in experiment [1] was not above 10 nM; in experiment [2] it was 10.1 to 50 nM; in experiment [3], not above 10 nM.

As for `Cn1cc(-c2cc(O[C@@H]3CCNC[C@H]3F)c3c(Nc4ccc5ncsc5c4F)ncnc3c2)cn1` [Example 348, 7-fluoro-N-(5-(((3R,4R)-3-fluoropiperidin-4-yl)oxy)-7-(1-methyl-1H-pyrazol-4-yl)quinazolin-4-yl)benzo[d]thiazol-6-amine], the half-maximal inhibitory concentration (IC50) in experiment [1], in experiment [2] and in experiment [3] was not above 10 nM in each case.

For the molecule `CN1CC[C@@H](Oc2cc(-c3cnn(C)c3)cc3ncnc(Nc4ccc5ncsc5c4F)c23)[C@H](F)C1` [Example 349, 7-fluoro-N-(5-(((3R,4R)-3-fluoro-1-methylpiperidin-4-yl)oxy)-7-(1-methyl-1H-pyrazol-4-yl)quinazolin-4-yl)benzo[d]thiazol-6-amine], the IC50 in experiment [1], in experiment [2] and in experiment [3] was not above 10 nM throughout.

In the case of `COc1nn(C)cc1-c1cc(O[C@@H]2CCNC[C@H]2F)c2c(Nc3ccc4ncsc4c3F)ncnc2c1` [Example 350, 7-fluoro-N-(5-(((3R,4R)-3-fluoropiperidin-4-yl)oxy)-7-(3-methoxy-1-methyl-1H-pyrazol-4-yl)quinazolin-4-yl)benzo[d]thiazol-6-amine], the IC50 in experiment [1], in experiment [2] and in experiment [3] was not above 10 nM each time.

On to `COc1nn(C)cc1-c1cc(O[C@@H]2CCN(C)C[C@H]2F)c2c(Nc3ccc4ncsc4c3F)ncnc2c1` [Example 351, 7-fluoro-N-(5-(((3R,4R)-3-fluoro-1-methylpiperidin-4-yl)oxy)-7-(3-methoxy-1-methyl-1H-pyrazol-4-yl)quinazolin-4-yl)benzo[d]thiazol-6-amine], for which the half-inhibitory concentration (IC50) in experiment [1], in experiment [2] and in experiment [3] was not above 10 nM each time.

`CN1CCC2(COC2)C(Oc2cc(-c3cnn(C)c3)cc3ncnc(Nc4ccc5ncsc5c4)c23)C1` (stereo not drawn) [Example 352, N-(7-(1-methyl-1H-pyrazol-4-yl)-5-((7-methyl-2-oxa-7-azaspiro[3.5]nonan-5-yl)oxy)quinazolin-4-yl)benzo[d]thiazol-6-amine]: the IC50 in experiment [1], in experiment [2] and in experiment [3] was not above 10 nM each time.

Consider `CN1CCC(n2cc(-c3cc4ncnc(Nc5ccc6ncsc6c5F)c4cc3F)cn2)CC1` [Example 356, 7-fluoro-N-(6-fluoro-7-(1-(1-methylpiperidin-4-yl)-1H-pyrazol-4-yl)quinazolin-4-yl)benzo[d]thiazol-6-amine], for which the 50% inhibitory concentration (IC50) in experiment [1], in experiment [2] and in experiment [3] was not above 10 nM in each case.

With `COc1nn(C)cc1-c1cc(O[C@@H]2CCN(C)C[C@@H]2F)c2c(Nc3ccc4ncsc4c3)ncnc2c1` [Example 362, N-(5-(((3S,4R)-3-fluoro-1-methylpiperidin-4-yl)oxy)-7-(3-methoxy-1-methyl-1H-pyrazol-4-yl)quinazolin-4-yl)benzo[d]thiazol-6-amine], the IC50 in experiment [1], in experiment [2] and in experiment [3] was not above 10 nM throughout.

`COc1nn(C)cc1-c1cc(O[C@@H]2CCNC[C@@H]2F)c2c(Nc3ccc4ncsc4c3)ncnc2c1` [Example 363, N-(5-(((3S,4R)-3-fluoropiperidin-4-yl)oxy)-7-(3-methoxy-1-methyl-1H-pyrazol-4-yl)quinazolin-4-yl)benzo[d]thiazol-6-amine]: the IC50 in experiment [1], in experiment [2] and in experiment [3] was not above 10 nM each time.

For the molecule `COc1nn(C)cc1-c1cc(O[C@H]2CCN(C)C[C@H]2F)c2c(Nc3ccc4ncsc4c3)ncnc2c1` [Example 364, N-(5-(((3R,4S)-3-fluoro-1-methylpiperidin-4-yl)oxy)-7-(3-methoxy-1-methyl-1H-pyrazol-4-yl)quinazolin-4-yl)benzo[d]thiazol-6-amine], the 50% inhibitory concentration (IC50) in experiment [1], in experiment [2] and in experiment [3] was not above 10 nM each time.

On to `COc1nn(C)cc1-c1cc(O[C@H]2CCNC[C@H]2F)c2c(Nc3ccc4ncsc4c3)ncnc2c1` [Example 365, N-(5-(((3R,4S)-3-fluoropiperidin-4-yl)oxy)-7-(3-methoxy-1-methyl-1H-pyrazol-4-yl)quinazolin-4-yl)benzo[d]thiazol-6-amine], for which the half-maximal inhibitory concentration (IC50) in experiment [1], in experiment [2] and in experiment [3] was not above 10 nM throughout.

In the case of `Cn1cc(-c2cc(O[C@H]3CCNC[C@H]3F)c3c(Nc4ccc5ncsc5c4)ncnc3c2)c(OC(F)F)n1` [Example 366, N-(7-(3-(difluoromethoxy)-1-methyl-1H-pyrazol-4-yl)-5-(((3R,4S)-3-fluoropiperidin-4-yl)oxy)quinazolin-4-yl)benzo[d]thiazol-6-amine], the figures for the half-inhibitory concentration (IC50) in experiment [1], in experiment [2] and in experiment [3] were not above 10 nM, not above 10 nM and 10.1 to 50 nM, respectively.

On to `CN1CC[C@H](Oc2cc(-c3cn(C)nc3OC(F)F)cc3ncnc(Nc4ccc5ncsc5c4)c23)[C@H](F)C1` [Example 367, N-(7-(3-(difluoromethoxy)-1-methyl-1H-pyrazol-4-yl)-5-(((3R,4S)-3-fluoro-1-methylpiperidin-4-yl)oxy)quinazolin-4-yl)benzo[d]thiazol-6-amine], for which the values for the 50% inhibitory concentration (IC50) in experiment [1], in experiment [2] and in experiment [3] were not above 10 nM, 10.1 to 50 nM and 10.1 to 50 nM, respectively.

For `Cn1cc(-c2cc(O[C@H]3CNC[C@@H]3F)c3c(Nc4ccc5ncsc5c4)ncnc3c2)cn1` [Example 382, N-(5-(((3S,4S)-4-fluoropyrrolidin-3-yl)oxy)-7-(1-methyl-1H-pyrazol-4-yl)quinazolin-4-yl)benzo[d]thiazol-6-amine], the IC50 in experiment [1] is not above 10 nM; in experiment [2] it was more than 50.1 nM; in experiment [3] it was 10.1 to 50 nM.

Turning to `CN1C[C@H](Oc2cc(-c3cnn(C)c3)cc3ncnc(Nc4ccc5ncsc5c4)c23)[C@@H](F)C1` [Example 383, N-(5-(((3S,4S)-4-fluoro-1-methylpyrrolidin-3-yl)oxy)-7-(1-methyl-1H-pyrazol-4-yl)quinazolin-4-yl)benzo[d]thiazol-6-amine], the results for the half-inhibitory concentration (IC50) in experiment [1], in experiment [2] and in experiment [3] were not above 10 nM, 10.1 to 50 nM and not above 10 nM, respectively.

As to `COc1nn(C)cc1-c1cc(OC2CCN(CC(F)F)CC2)c2c(Nc3ccc4ncsc4c3)ncnc2c1` [Example 386, N-(5-((1-(2,2-difluoroethyl)piperidin-4-yl)oxy)-7-(3-methoxy-1-methyl-1H-pyrazol-4-yl)quinazolin-4-yl)benzo[d]thiazol-6-amine], the IC50 in experiment [1], in experiment [2] and in experiment [3] was not above 10 nM each time.

Turning to `COc1cc2ncnc(Nc3ccc4ncsc4c3)c2cc1N[C@H]1CCN(C)C[C@@H]1F` [Example 393, N4-(benzo[d]thiazol-6-yl)-N6-((3S,4S)-3-fluoro-1-methylpiperidin-4-yl)-7-methoxyquinazoline-4,6-diamine], the IC50 in experiment [1], in experiment [2] and in experiment [3] was not above 10 nM in each case.
